Source: patent publication US20260265262A1, “CDK2 INHIBITORS AND METHODS OF USING THE SAME” (Cedilla Therapeutics, Inc., priority 2022, published 2026)
Read-outs that look alike come from different tables or passages of the source.

Experiments:
CDK2/Cyclin E1 = CDK2/Cyclin E1 (Homo sapiens, UniProt P24941); test: ADP-Glo Luminescent Kinase Assay (CDK2/E1-37C); format: biochemical; conditions: 0.18 nM CDK2/Cyclin E1, 100 μM ATP, 1.5 μM Histone H1, 37° C., 60 min pre-incubation; read-out: ADPGLO (CDK2/E1-37C): IC50
Method: Inhibition of CDK2/Cyclin E1 activity by the presence of small molecules was evaluated using ADP-Glo Luminescent Kinase Assay (Promega). Activated CDK2/Cyclin E1 was incubated with its substrate Histone H1 (SignalChem H10-54N) in the kinase reaction buffer (100 μM ATP, 50 mM HEPES pH 7.5, 10 mM MgCl2, 1 mM EDTA, 2 mM DTT, 0.01% Brij35, 0.5 mg/mL BSA). Luminescence was recorded with an Envision plate reader (PerkinElmer).
Dose titrations of inhibitors in 100% DMSO were combined with 0.36 nM CDK2/Cyclin E1 in reaction buffer. The mixtures were incubated for 60 minutes at 37° C. before the addition of ATP and Histone H1 substrate to initiate the kinase reaction. The final conditions were 0.18 nM CDK2/Cyclin E1, 100 μM ATP, and 1.5 μM Histone H1. The reactions were incubated at 37° C. for 90 minutes before being stopped with the addition of ADP-Glo reagent. This mixture was incubated at room temperature for 60 minutes before Kinase Detection Solution is added to generate luminescence. The stopped reactions were analyzed on an Envision plate reader. The conversion ratios were normalized to yield % activity, plotted against compound concentration, and fit to a four-parameter equation to determine the IC50 for each compound.

Kuramochi cells = test: IncuCyte cell proliferation assay; format: cell-based
Method: IncuCyte® assay was used to measure the effect of disclosed compounds on cell proliferation. Fluorescent microscopy images of cells were taken immediately after compound treatment and 72 hours later. Image analysis software was used to obtain cell counts as a function of compound concentration. Kuramochi cells labeled with mApple-H2B were seeded on 384-well assay-ready plates. Plates were placed in an IncuCyte® (Sartorius) and scanned at 0 and 72 hours. IncuCyte® software was used to count the number of fluorescent nuclei in each well. The fold change in cell count from 0 to 72 hours in wells treated with increasing compounds concentrations (10 pts, 1/2 log dilution, 20 μM top concentration) was normalized to DMSO control wells. The normalized cell counts were fit with dose response curves and a […] was calculated.

[1] = Kuramochi cells labeled with mApple-H2B, cell count 0 to 72 hours, 20 μM top concentration, read-out: IncuCyte Kuramochi RB-WT: IC50

Compound | IC50 (CDK2/Cyclin E1) [µM] | IC50 (Kuramochi cells; [1]) [µM] | IC50 (Kuramochi cells; read-out: IncuCyte Kuramochi RB-WT: IC50 (μM)) [µM]
C[C@@H](OCC12CCC(CC1)OC2)[C@H](NC(=O)[C@@H]1CN(C(=O)c2cnn(Cc3ccccc3C(=O)O)c2)CC12CN(C(=O)C1(C(F)(F)F)CC1)C2)C(=O)N1CCC(c2nccs2)CC1 [Example I-88, 2-((4-((S)-8-(((2S,3R)-3-(2-oxabicyclo[2.2.2]octan-4-ylmethoxy)-1-oxo-1-(4-(thiazol-2-yl)piperidin-1-yl)butan-2-yl)carbamoyl)-2-(1-(trifluoromethyl)cyclopropanecarbonyl)-2,6-diazaspiro[3.4]octane-6-carbonyl)-1H-pyrazol-1-yl)methyl)benzoic acid] | < 0.5 | > 20 | –
C[C@@H](OCC1CCCCC1)[C@H](NC(=O)[C@@H]1CN(C(=O)c2cnn(Cc3ccc(C(F)(F)F)cc3)c2)CC12CN(C(=O)[C@H]1CC1(C)C)C2)C(=O)N1CCC(c2ccc(C(=O)O)cc2)CC1 [Example I-29] | < 0.5 | – | 0.5 to 5
COC(=O)CCNC(=O)[C@@H](NC(=O)[C@@H]1CN(C(=O)c2cnn(Cc3ccc(C(F)(F)F)cc3)c2)CC12CN(C(=O)C1(C(F)(F)F)CC1)C2)[C@@H](C)OCC12CCC(CC1)OC2 [Example I-84] | 0.5 to 5 | < 0.5 | –
C[C@@H](OCC12CCC(CC1)OC2)[C@H](NC(=O)[C@@H]1CN(C(=O)c2cnn(Cc3ccc(C(F)(F)F)cc3)c2)CC12CN(C(=O)C1(C(F)(F)F)CC1)C2)C(=O)N1CCC(c2nnn[nH]2)CC1 [Example I-100] | < 0.5 | > 20 | –
C[C@@H](OCC12CCC(CC1)OC2)[C@H](NC(=O)[C@@H]1CN(C(=O)c2cnn(Cc3ccccc3C(=O)O)c2)CC12CN(C(=O)[C@H]1CC1(C)C)C2)C(=O)N1CCC2(CCNCC2)CC1 [Example I-96] | < 0.5 | > 20 | –
C[C@@H](OCC12CCC(CC1)OC2)[C@H](NC(=O)[C@@H]1CN(C(=O)c2cnc(O)cn2)CC12CN(C(=O)C1CC1(C)C)C2)C(=O)N1CCC(c2ccc(C(F)(F)F)c(C(=O)O)c2)CC1 (stereo partly drawn) [Example I-90, 5-(1-(O-((2-oxabicyclo[2.2.2]octan-4-yl)methyl)-n-((s)-2-((s)-2,2-dimethylcyclopropane-1-carbonyl)-6-(5-hydroxypyrazine-2-carbonyl)-2,6-diazaspiro[3.4]octane-8-carbonyl)-L-threonyl)piperidin-4-yl)-2-(trifluoromethyl)benzoic acid] | < 0.5 | > 20 | –

Continued, in another order:

IC50 (CDK2/Cyclin E1) [µM] | Compound | IC50 (Kuramochi cells; [1]) [µM] | IC50 (Kuramochi cells; read-out: IncuCyte Kuramochi RB-WT: IC50 (μM)) [µM]
< 0.5 | COC(=O)c1c(F)cc(C2CCN(C(=O)[C@@H](NC(=O)[C@@H]3CN(C(=O)c4cnn(Cc5ccc(C(F)(F)F)cc5)c4)CC34CN(C(=O)C3(C(F)(F)F)CC3)C4)[C@@H](C)OCC34CCC(CC3)OC4)CC2)cc1F (stereo in doubt) [Example I-2] | 0.5 to 5 | –
< 0.5 | C[C@@H](OCC12CCC(CC1)OC2)[C@H](NC(=O)[C@@H]1CN(C(=O)c2cncs2)CC12CN(C(=O)C1(C(F)(F)F)CC1)C2)C(=O)N1CCC(c2nccs2)CC1 [Example I-34, (S)—N-((2S,3R)-3-((2-oxabicyclo[2.2.2]octan-4-yl)methoxy)-1-oxo-1-(4-(thiazol-2-yl)piperidin-1-yl)butan-2-yl)-6-(thiazole-5-carbonyl)-2-(1-(trifluoromethyl)cyclopropane-1-carbonyl)-2,6-diazaspiro[3.4]octane-8-carboxamide] | 0.5 to 5 | –
> 10 | CC1(C)C[C@@H]1C(=O)N1CC2(CN(C(=O)c3cncs3)C[C@H]2C(=O)N2CCN(CC3CCCCC3)C(CC(=O)NS(C)(=O)=O)C2)C1 (single isomer, unassigned) [Example I-95] | > 20 | –
5 to 10 | C[C@@H](OCC12CCC(CC1)OC2)[C@H](NC(=O)[C@@H]1CN(C(=O)c2cnn(Cc3ccc(C(F)(F)F)cc3)c2)CC12CN(C(=O)C1(C(F)(F)F)CC1)C2)C(=O)NCCc1nnn[nH]1 [Example I-16] | > 20 | –
< 0.5 | COC(=O)[C@@H]1CN(C(=O)[C@@H](NC(=O)[C@@H]2CN(C(=O)c3cnn(Cc4ccc(C#N)cc4)c3)CC23CN(C(=O)C2(C(F)(F)F)CC2)C3)[C@@H](C)OCC23CCC(CC2)OC3)CCN1C(=O)OC(C)(C)C [Example I-114] | 5 to 20 | –
